The text below walks through data of ChEMBL document CHEMBL1158243, “Hydroxycornexistin: A New Phytotoxin from Paecilomyces variotii” (J Nat Prod, 1996).

What all share (type): functional, organism-based
In experiment [1] the test system is Zea mays. Nature of the experiment: Herbicidal activity against Zea mays assessed as plant death at 7.81 ppm after 2 weeks.
For experiment [2], the system named is Setaria faberi. Nature of the experiment: Herbicidal activity against Setaria faberi assessed as plant death at 15.63 ppm after 2 weeks.
The test system of experiment [3] is Sorghum bicolor. Briefly: Herbicidal activity against Sorghum bicolor assessed as plant death at 7.81 ppm after 2 weeks.
Experiment [4] deals with Sorghum bicolor. Nature of the experiment: Herbicidal activity against Sorghum bicolor assessed as plant death at 31.25 ppm after 2 weeks.
Experiment [5] relates to Fallopia convolvulus. Nature of the experiment: Herbicidal activity against Fallopia convolvulus assessed as plant death at 15.63 ppm after 2 weeks.
Experiment [6] has as its system Zea mays. Nature of the experiment: Herbicidal activity against Zea mays assessed as plant death at 15.63 ppm after 2 weeks.
The test system of experiment [7] is Ipomoea hederacea. Briefly: Herbicidal activity against Ipomoea hederacea assessed as plant death at 15.63 ppm after 2 weeks.
In experiment [8] the test system is Fallopia convolvulus. Briefly: Herbicidal activity against Fallopia convolvulus assessed as plant death at 31.25 ppm after 2 weeks.
Experiment [9] deals with Sorghum bicolor. Nature of the experiment: Herbicidal activity against Sorghum bicolor assessed as plant death at 15.63 ppm after 2 weeks.
The subject of experiment [10] is Amaranthus. Nature of the experiment: Herbicidal activity against Amaranthus sp. assessed as plant death at 7.81 ppm after 2 weeks.
The subject of experiment [11] is Setaria faberi. Nature of the experiment: Herbicidal activity against Setaria faberi assessed as plant death at 7.81 ppm after 2 weeks.
Experiment [12] has as its system Xanthium strumarium. Nature of the experiment: Herbicidal activity against Xanthium strumarium assessed as plant death at 31.25 ppm after 2 weeks.
The subject of the next experiment is Echinochloa crus-galli. Briefly: Herbicidal activity against Echinochloa crus-galli assessed as plant death at 7.81 ppm after 2 weeks.
Experiment [13] has as its system Ipomoea hederacea. Briefly: Herbicidal activity against Ipomoea hederacea assessed as plant death at 7.81 ppm after 2 weeks.
Experiment [14] concerns Avena sativa. Briefly: Herbicidal activity against Avena sativa assessed as plant death at 15.63 ppm after 2 weeks.
The test system of experiment [15] is Avena sativa. Briefly: Herbicidal activity against Avena sativa assessed as plant death at 7.81 ppm after 2 weeks.
The subject of the next experiment is Abutilon theophrasti. Nature of the experiment: Herbicidal activity against Abutilon theophrasti assessed as plant death at 7.81 ppm after 2 weeks.
The test system of experiment [16] is Xanthium strumarium. Nature of the experiment: Herbicidal activity against Xanthium strumarium assessed as plant death at 7.81 ppm after 2 weeks.
The subject of the next experiment is Digitaria sanguinalis. Nature of the experiment: Herbicidal activity against Digitaria sanguinalis assessed as plant death at 7.81 ppm after 2 weeks.
For experiment [17], the system named is Avena sativa. Briefly: Herbicidal activity against Avena sativa assessed as plant death at 31.25 ppm after 2 weeks.
Experiment [18] concerns Amaranthus. Briefly: Herbicidal activity against Amaranthus sp. assessed as plant death at 15.63 ppm after 2 weeks.
For experiment [19], the system named is Triticum aestivum. Briefly: Herbicidal activity against Triticum aestivum assessed as plant death at 15.63 ppm after 2 weeks.
Experiment [20] concerns Amaranthus. Briefly: Herbicidal activity against Amaranthus sp. assessed as plant death at 31.25 ppm after 2 weeks.
Experiment [21] has as its system Ipomoea hederacea. Briefly: Herbicidal activity against Ipomoea hederacea assessed as plant death at 31.25 ppm after 2 weeks.
The subject of experiment [22] is Triticum aestivum. Briefly: Herbicidal activity against Triticum aestivum assessed as plant death at 7.81 ppm after 2 weeks.

Calls of active or inactive are those of the source. No cut-off for these calls is given here.

Consider `CCC[C@H]1C2=C(C/C(=C/CO)[C@@H](O)CC(=O)[C@H]1O)C(=O)OC2=O`, for which the outcome in the experiment with Zea mays [1], with Setaria faberi [2], in the experiment on Sorghum bicolor [3], in the experiment on Sorghum bicolor [4], in the experiment on Zea mays [6] and in the experiment on Ipomoea hederacea [7] was inactive. Further, the outcome with Sorghum bicolor [9], in the experiment on Amaranthus [10], with Setaria faberi [11], with Echinochloa crus-galli and in the experiment with Ipomoea hederacea [13] was inactive. The outcome with Fallopia convolvulus [5], with Fallopia convolvulus [8] and with Xanthium strumarium [12] was Active.
Consider `C/C=C1/CC2=C(C(=O)OC2=O)[C@H](CCC)[C@H](O)C(=O)C[C@@H]1O`, for which the result in the experiment with Avena sativa [14], in the experiment with Avena sativa [15], in the experiment on Abutilon theophrasti, in the experiment with Xanthium strumarium [16], with Digitaria sanguinalis and with Amaranthus [18] was inactive. The outcome in the experiment with Zea mays [1], in the experiment with Sorghum bicolor [3], in the experiment with Ipomoea hederacea [7], in the experiment with Sorghum bicolor [9], with Amaranthus [10] and in the experiment on Triticum aestivum [19] was inactive. The result in the experiment on Amaranthus [20], in the experiment on Echinochloa crus-galli, in the experiment with Ipomoea hederacea [21], in the experiment on Triticum aestivum [22] and in the experiment with Ipomoea hederacea [13] was inactive. Besides, the result in the experiment on Avena sativa [17] was Active.
